# Data as given in patent EP0745595A1, “3-(3-Aryloxyphenyl)-1-(substituted methyl)-s-triazine-2,4,6-oxo or thiotrione herbicidal agents” (American Cyanamid Company, priority 1995, dated 1996).
# Tests used:
# Assay type in all cases: in vivo
# [1] = test system: AMBROSIA ARTEMISIIFOLIA, L.; assay: Postemergence herbicidal evaluation, AMBEL (Ragweed, Common)
# Procedure, shortened: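 Common ragweed (Ambrosia artemisiifolia) seedlings were raised in jiffy flats for roughly two weeks, then sprayed postemergence through a nozzle at 40 psi with the test compound dispersed in 50/50 acetone/water carrying 0.5% TWEEN®20. The plants were kept on greenhouse benches under conventional care. Four to five weeks later, injury was rated visually on a 0-9 scale, and repeat tests were averaged.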
# CASSIA OBTUSIFOLIA, L. = assay: Postemergence herbicidal evaluation, CASOB (Sicklepod); design: key to CASOB rating / Herbicidal effect rating, CASOB / CASOB: 0-9 visual rating scale vs untreated control
# Procedure, shortened: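 Visual 0–9 scores reflect stand, vigor, malformation, size, chlorosis and overall appearance relative to control, taken 4–5 weeks after spraying two-week-old seedlings with about 0.125–0.500 kg/ha compound in acetone/water/TWEEN 20.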
# CHENOPODIUM ALBUM, L. [2] = assay: Postemergence herbicidal evaluation, CHEAL (Lambsquarters, Common)
# Procedure, shortened: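 Seedlings of common lambsquarters (Chenopodium album) were raised in jiffy flats for roughly two weeks, then sprayed postemergence through a nozzle at 40 psi with test compound dispersed in 50/50 acetone/water containing 0.5% TWEEN®20 surfactant. Plants were kept on greenhouse benches under standard care and rated visually on a 0-9 scale versus controls.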
# IPOMOEA SPP. = assay: Postemergence herbicidal evaluation, IPOSS (Morningglory spp.)
# Procedure, shortened: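 Seedlings of morningglory (Ipomoea spp.) were raised in jiffy flats for roughly two weeks. They were then sprayed postemergence through a nozzle at 40 psi with test compound dispersed in 50/50 acetone/water containing 0.5% TWEEN®20 surfactant. Plants were kept on greenhouse benches under standard care and visually rated 0-9 against controls four to five weeks after treatment.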
# GALIUM APARINE = assay: Postemergence herbicidal evaluation, GALAP (Galium); design: key to GALAP rating / Herbicidal effect rating, GALAP / GALAP: 0-9 visual rating scale vs untreated control
# Procedure, shortened: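 Galium (GALAP) seedlings were raised in jiffy flats for about two weeks, then sprayed with test compounds dispersed in 50/50 acetone/water containing 0.5% TWEEN®20, delivered through a nozzle at 40 psi. Plants were kept on greenhouse benches and visually rated 0-9 against a control four to five weeks later; repeat tests were averaged.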
# [3] = test system: ECHINOCHLOA CRUS-GALLI, (L) BEAU; assay: Postemergence herbicidal evaluation, ECHCG (Barnyardgrass); design: key to ECHCG rating / Herbicidal effect rating, ECHCG / ECHCG: 0-9 visual rating scale vs untreated control
# Procedure, shortened: (§1)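 Greenhouse postemergence test. Seedlings (~2 wk) sprayed at 40 psi; dose ~0.125–0.500 kg/ha in acetone/water (1:1), 0.5% TWEEN 20. Scored 0–9 at 4–5 wk.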
# [4] = test system: SETARIA VIRIDIS, (L) BEAU; assay: Postemergence herbicidal evaluation, SETVI (Foxtail, Green); design: key to SETVI rating / Herbicidal effect rating, SETVI / SETVI: 0-9 visual rating scale vs untreated control
# Procedure, shortened: as §1
# [5] = test system: TRITICUM AESTIVUM, CV. APOLLO; assay: Postemergence herbicidal evaluation, TRZAWO (Wheat, Winter, CV. APOLLO)
# Procedure, shortened: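 Wheat seedlings, raised in jiffy flats for roughly two weeks, were sprayed postemergence with test compound dispersed in a 50/50 acetone/water mixture containing 0.5% TWEEN®20 surfactant, delivered through a nozzle at 40 psi. Plants were then kept on greenhouse benches under conventional care. Four to five weeks after treatment they were rated visually on a 0-9 scale against an untreated control, and ratings from repeated tests were averaged.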
# ZEA MAYS L. = assay: Postemergence herbicidal evaluation, ZEAMX (Corn, Field)
# Procedure, shortened: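 Corn seedlings were raised in jiffy flats for roughly two weeks, then sprayed postemergence with the test material dispersed in 50/50 acetone/water containing 0.5% TWEEN®20 surfactant, using a nozzle at 40 psi. Plants were kept on greenhouse benches under standard care and visually rated on a 0-9 scale four to five weeks after treatment.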
# CHENOPODIUM ALBUM, L. [6] = assay: Preemergence herbicidal evaluation, CHEAL (Lambsquarters, Common); details: four to five weeks after treatment
# Procedure, shortened: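 Rated 0-9 by visual comparison with control (stand, vigor, malformation, size, chlorosis, overall appearance) four to five weeks after preemergence soil spray. Dose equivalent to about 0.125 to 0.50 kg per hectare, applied in aqueous acetone to freshly seeded cups kept in greenhouse.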
# [7] = test system: ORYZA SATIVA, L. TEBONNET; assay: Rice tolerance to post-transplant applications under flooded paddy conditions, ORYSAT (Rice, Tebonnet); details: for ORYSAT herbicidal rating (rice tolerance): post-transplant rice, rated three to four weeks after treatment; for ORYSAT: post-transplanted rice;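 on ORYSAT herbicidal rating (rice tolerance): applied to flooded soil surface three days after transplanting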
# Procedure, shortened: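 Post-transplant paddy test: compound applied 3 d after transplanting to flooded soil (1.5-3 cm water), ~0.063-0.5 kg/ha a.i., 50/50 aq/acetone. Silt loam, 2 × 10-d seedlings/pot. Greenhouse 3-4 wk, visual 0-9 score vs control.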
compound,measurement,setting,value
"COC(=O)Cn1c(=O)n(C)c(=O)n(-c2cc(Oc3ccc(C(F)(F)F)cc3Cl)ccc2[N+](=O)[O-])c1=O [Compound 3, Methyl 3-{5-[(2-chloro-α,α,α-trifluoro-p-tolyl)oxy]-2-nitrophenyl}tetrahydro-5-methyl-2,4,6-trioxo-s-triazine-1(2H)-acetate]","Herbicidal effect rating, AMBEL",[1]; 0.031 kg/ha,8.3
same,"Herbicidal effect rating, AMBEL",[1]; 0.063 kg/ha,8.6
same,"Herbicidal effect rating, AMBEL",[1]; 0.125 kg/ha,8.8
same,"Herbicidal effect rating, AMBEL",[1]; 0.250 kg/ha,9.0
same,"Herbicidal effect rating, CASOB","CASSIA OBTUSIFOLIA, L.; 0.031 kg/ha",7.7
same,"Herbicidal effect rating, CASOB","CASSIA OBTUSIFOLIA, L.; 0.063 kg/ha",8.4
same,"Herbicidal effect rating, CASOB","CASSIA OBTUSIFOLIA, L.; 0.125 kg/ha",8.8
same,"Herbicidal effect rating, CASOB","CASSIA OBTUSIFOLIA, L.; 0.250 kg/ha",8.4
same,"Herbicidal effect rating, CHEAL","CHENOPODIUM ALBUM, L. [2]; 0.031 kg/ha",5.1
same,"Herbicidal effect rating, CHEAL","CHENOPODIUM ALBUM, L. [2]; 0.063 kg/ha",6.0
same,"Herbicidal effect rating, CHEAL","CHENOPODIUM ALBUM, L. [2]; 0.125 kg/ha",7.2
same,"Herbicidal effect rating, CHEAL","CHENOPODIUM ALBUM, L. [2]; 0.250 kg/ha",7.4
same,"Herbicidal effect rating, IPOSS",IPOMOEA SPP.; 0.031 kg/ha,7.6
same,"Herbicidal effect rating, IPOSS",IPOMOEA SPP.; 0.063 kg/ha,8.3
same,"Herbicidal effect rating, IPOSS",IPOMOEA SPP.; 0.125 kg/ha,8.9
same,"Herbicidal effect rating, IPOSS",IPOMOEA SPP.; 0.250 kg/ha,8.9
same,"Herbicidal effect rating, GALAP",GALIUM APARINE; 0.031 kg/ha,8.2
same,"Herbicidal effect rating, GALAP",GALIUM APARINE; 0.063 kg/ha,8.3
same,"Herbicidal effect rating, GALAP",GALIUM APARINE; 0.125 kg/ha,8.7
same,"Herbicidal effect rating, GALAP",GALIUM APARINE; 0.250 kg/ha,8.4
same,"Herbicidal effect rating, ECHCG",[3]; 0.031 kg/ha,4.3
same,"Herbicidal effect rating, ECHCG",[3]; 0.063 kg/ha,5.1
same,"Herbicidal effect rating, ECHCG",[3]; 0.125 kg/ha,6.7
same,"Herbicidal effect rating, ECHCG",[3]; 0.250 kg/ha,7.9
same,"Herbicidal effect rating, SETVI",[4]; 0.031 kg/ha,3.9
same,"Herbicidal effect rating, SETVI",[4]; 0.063 kg/ha,5.1
same,"Herbicidal effect rating, SETVI",[4]; 0.125 kg/ha,6.8
same,"Herbicidal effect rating, SETVI",[4]; 0.250 kg/ha,7.9
same,"Herbicidal effect rating, TRZAWO",[5]; 0.031 kg/ha,6.1
same,"Herbicidal effect rating, TRZAWO",[5]; 0.063 kg/ha,6.8
same,"Herbicidal effect rating, TRZAWO",[5]; 0.125 kg/ha,7.1
same,"Herbicidal effect rating, TRZAWO",[5]; 0.250 kg/ha,7.6
same,"Herbicidal effect rating, ZEAMX",ZEA MAYS L.; 0.031 kg/ha,4.6
same,"Herbicidal effect rating, ZEAMX",ZEA MAYS L.; 0.063 kg/ha,4.8
same,"Herbicidal effect rating, ZEAMX",ZEA MAYS L.; 0.125 kg/ha,5.8
same,"Herbicidal effect rating, ZEAMX",ZEA MAYS L.; 0.250 kg/ha,6.9
same,CHEAL rating,"CHENOPODIUM ALBUM, L. [6]; Rate 0.125 kg/ha",9.0
same,CHEAL rating,"CHENOPODIUM ALBUM, L. [6]; Rate 0.250 kg/ha",9.0
same,CHEAL rating,"CHENOPODIUM ALBUM, L. [6]; Rate 0.500 kg/ha",9.0
same,ORYSAT herbicidal rating (rice tolerance),[7]; Rate 0.063 kg/ha,2.7
same,ORYSAT herbicidal rating (rice tolerance),[7]; Rate 0.125 kg/ha,3.0
same,ORYSAT herbicidal rating (rice tolerance),[7]; Rate 0.250 kg/ha,3.8
same,ORYSAT herbicidal rating (rice tolerance),[7]; Rate 0.500 kg/ha,4.0
same,ORYSAT,[7]; Rate 0.031 kg/ha,1.0
same,ORYSAT,[7]; Rate 0.063 kg/ha,2.7
same,ORYSAT,[7]; Rate 0.125 kg/ha,3.0
same,ORYSAT,[7]; Rate 0.250 kg/ha,3.8
